Measured values published in PMC11727410, “Identification of Chemical Constituents from Leaves and Stems of Alpinia oxyphylla: Potential Antioxidant and Tyrosinase Inhibitory Properties” (Antioxidants, 2024).

Assays:
[1] = ABTS radical scavenging activity assay; conditions: for Inhibitory rate (%), ABTS (Table S4): Table S4, concentration not given; for ABTS Inhibitory Rate (%): concentration 200 μM, "-" not active; for IC50: converted from μg/mL
Procedure: The ABTS radical scavenging activity was examined as previously reported at room temperature (25 °C). Briefly, 160 μL sample in DMSO with different concentrations (800, 400, 200, 100, 50, 25 μM) was reacted with 480 μL ABTS reagent in a 1.5 mL centrifuge tube away from light for 6 min. Next, 200 μL of the mixture was taken out and transferred into a 96-well plate, which was used for measuring the absorbance by a microplate reader at 734 nm (ODsample). The control (ODcontrol) and blank (ODblank) were, respectively, established from the mixture solutions of the sample in DMSO and water and the mixture solution of DMSO and ABTS reagent. Trolox was the positive control, with the same concentration with compounds. The ABTS radical scavenging capacity was calculated as following:ABTS radical scavenging capacity (%) = [1 − (ODsample − ODcontrol)/ODblank] × 100%

[2] = DPPH radical scavenging activity assay; conditions: for Inhibitory rate (%), DPPH (Table S4): Table S4, concentration not given; for DPPH Inhibitory Rate (%): concentration 200 μM; for IC50: converted from μg/mL
Procedure: The DPPH radical scavenging capacity was measured according to the following reference at room temperature (25 °C). Briefly, 320 μL sample in DMSO with different concentrations (400, 200, 100, 50, 25, 12.5 μM) was reacted with 320 μL DPPH reagent (0.1 mM) in 1.5 mL centrifuge tube away from light for 30 min. Next, 200 μL of the mixture was transferred into a 96-well plate, which was used for measuring the absorbance at 517 nm (ODsample). A control (ODcontrol) and blank (ODblank) were, respectively, established from the mixture solutions of the sample in DMSO and ethanol and the mixture solution of DMSO and DPPH reagent. Vitamin C was the positive control, with the same concentration as the compounds. The DPPH radical scavenging capacity was calculated according to the following:DPPH radical scavenging capacity (%) = [1 − (ODsample − ODcontrol)/ODblank] × 100%

[3] = system: B16 cells; assay: MTT assay for cell viability; type: cell-based; conditions: under the selected concentrations
Procedure: (§1) B16 melanoma cells (PNS-MC-36) were purchased from Procell Life Science & Technology Co., Ltd. (Wuhan, China).
A modified MTT method was applied to screen cell viability. B16 cells were cultured in 96-well plates and mixed with different concentrations of the sample after 24 h. After having been incubated for another 72 h, MTT solution was added to form formazan, which was followed by dissolved in 100 μL DMSO, and then the absorbance (OD) was measured at 490 nm. Cell viability was calculated as percent changes relative to control.

[4] = system: B16 cells; assay: Measurement of melanin produced by B16 cells; type: cell-based; conditions: 150 μM, compared with positive control kojic acid; concentration dependent
Procedure: as §1
B16 cells were seeded into 96-well plates with […], and incubated at 37 °C, 5% CO2, and 90% humidity for 24 h. Having removed the supernatant, 100 μL samples with different concentrations were added. Medium without the sample was added as the blank. After incubation for another 72 h, the cells were dissolved in 100 μL of 2 N NaOH, and then incubated at 80 °C. The absorbance (OD) was measured at 450 nm.

[5] = ABTS radical scavenging activity assay; conditions: concentration 100 μg/mL
[6] = DPPH radical scavenging activity assay; conditions: concentration 100 μg/mL

Compound | ABTS IC50 ± SD [1] [µg/mL] | Inhibitory rate (%), ABTS (Table S4) [1] [%] | ABTS Inhibitory Rate (%) [1] [%] | Inhibitory rate (%), DPPH (Table S4) [2] [%] | DPPH Inhibitory Rate (%) [2] [%] | IC50 [1] [µM] | DPPH IC50 ± SD [2] [µg/mL] | IC50 [2] [µM] | Toxicity to B16 cells [3] | Melanin production inhibition activity in B16 cells [4] | ABTS free radical scavenging rate [5] [%] | DPPH free radical scavenging rate [6] [%]
O=C1C[C@@H](c2ccccc2)Oc2cc(O)cc(O)c21 [Compound 14, pinocembrin] | 27.73 ± 0.69 | 78.11 ± 0.32 | 78.11 ± 0.32 | 27.53 ± 1.96 | 27.53 ± 1.96 | – | – | – | – | – | – | –
COc1cc(O)ccc1O[C@@H]1O[C@H](CO)[C@@H](O)[C@H](O)[C@H]1O [Compound 20, 1,4-dihydroxyl-3-methoxyphenyl-4-O-β-D-glucopyranoside] | 8.20 ± 0.14 | 92.80 ± 0.31 | 92.80 ± 0.31 | 84.06 ± 1.79 | 84.06 ± 1.79 | 27.2 | 23.21 ± 2.88 | 77 | – | – | – | –
COC(=O)C1OC(Oc2c(-c3ccc(O)cc3)oc3cc(O)cc(O)c3c2=O)C(OC2OC(C)C(O)C(O)C2O)C(OC(C)=O)C1OC(C)=O [Compound 2, Kaempferol 3-O-α-L-rhamnosyl-(1 → 2)-(3″,4″-diacetyl-β-D-glucuronatemethyl ester)] | 6.42 ± 0.12 | 93.04 ± 0.10 | 93.04 ± 0.10 | 22.77 ± 1.85 | 22.77 ± 1.85 | – | – | – | no toxicity | stronger inhibitory effects than positive control (kojic acid) | – | –
COc1cc(CCC(=O)CCCCc2ccccc2)ccc1O [Compound 6, yakuchinone A] | – | 4.42 ± 0.12 | 4.42 ± 0.12 | 18.77 ± 1.28 | 18.77 ± 1.28 | – | – | – | – | – | – | –
COc1cc(O)cc(OC)c1O[C@@H]1O[C@H](CO)[C@@H](O)[C@H](O)[C@H]1O [Compound 19, 4-hydroxy-2,6-dimethoxyphenyl-β-D-glucoside] | 17.50 ± 0.23 | 92.57 ± 0.10 | 92.57 ± 0.10 | 60.59 ± 0.17 | 60.59 ± 0.17 | 52.9 | 114.44 ± 0.14 | 345 | – | – | – | –
COc1cc(O)c2c(=O)cc(-c3ccccc3)oc2c1 [Compound 13, tectochrysin] | 20.81 ± 0.29 | 91.93 ± 1.68 | 91.93 ± 1.68 | 18.61 ± 0.62 | 18.61 ± 0.62 | – | – | – | – | – | – | –
COc1ccc(-c2oc3cc(OC)cc(O)c3c(=O)c2O)cc1 [Compound 12, 3,5-dihydroxy-4′,7-dimethoxyflavone] | 8.55 ± 0.08 | 75.07 ± 0.46 | 75.07 ± 0.46 | 79.80 ± 2.02 | 79.80 ± 2.02 | – | 23.15 ± 3.24 | – | – | – | – | –
COc1cc(CC/C=C/C(=O)CCc2ccc(O)c(OC)c2)ccc1O [Compound 8, gingerenone A] | 36.06 ± 1.07 | 90.81 ± 0.24 | 90.81 ± 0.24 | 52.84 ± 2.47 | 52.84 ± 2.47 | – | – | – | – | – | – | –
Cc1c(C)c2c(c(C)c1O)CCC(C)(C(=O)O)O2 (stereo not shown) [trolox, Trolox, reference compound] | 31.61 ± 0.60 | 92.69 ± 0.03 | 92.69 ± 0.03 | – | – | – | – | – | – | – | 91.6 | –
O=C1O[C@H]([C@@H](O)CO)C(O)=C1O [Vitamin C, reference compound] | – | – | – | 85.44 ± 0.34 | 85.44 ± 0.34 | – | 6.20 ± 0.41 | – | – | – | – | 72.7
COc1cc(CC(O)C(O)CC2OC(CC(O)C(O)Cc3ccc(O)c(OC)c3)C3C(c4cc(OC)c(O)c(OC)c4)OC(c4cc(OC)c(O)c(OC)c4)C23)ccc1O (stereo not shown) [Compound 1, Aloxy A] | 39.59 ± 0.53 | 91.09 ± 0.55 | 91.09 ± 0.55 | 50.74 ± 2.31 | 50.74 ± 2.31 | – | – | – | no toxicity | stronger inhibitory effects than positive control (kojic acid) | – | –
OC[C@H]1O[C@@H](OCc2ccccc2)[C@H](O)[C@@H](O)[C@@H]1O [Compound 17, benzyl O-β-D-glucopyranoside] | – | – | – | 25.74 ± 1.49 | 25.74 ± 1.49 | – | – | – | – | – | – | –
O=c1ccc2c3c(c(O)cc2o1)C[C@@H](O)[C@@H](c1ccc(O)c(O)c1)O3 [Compound 16, epiphyllocoumarin] | 8.49 ± 0.06 | 92.51 ± 0.27 | 92.51 ± 0.27 | 76.93 ± 1.34 | 76.93 ± 1.34 | – | 7.29 ± 0.60 | – | – | – | – | –
O=c1ccc2c(O)cc3c(c2o1)C[C@@H](O)[C@@H](c1ccc(O)c(O)c1)O3 [Compound 15, isoepiphyllocoumarin] | 30.57 ± 0.93 | 71.48 ± 0.32 | 71.48 ± 0.32 | 36.54 ± 3.60 | 36.54 ± 3.60 | – | – | – | – | – | – | –
COC(=O)[C@H]1O[C@@H](Oc2c(-c3ccc(O)cc3)oc3cc(O)cc(O)c3c2=O)[C@H](O[C@@H]2O[C@@H](C)[C@H](O)[C@@H](O)[C@H]2O)[C@@H](O)[C@@H]1O [Compound 9, kaempferol 3-O-α-L-rhamnosyl-(1 → 2)-(β-D-glucuronatemethyl ester)] | 6.20 ± 0.05 | 92.39 ± 0.27 | 92.39 ± 0.27 | 43.07 ± 3.99 | 43.07 ± 3.99 | – | – | – | – | – | – | –
COc1cc(CCC(=O)CC(O)CCc2ccc(O)c(OC)c2)ccc1O (stereo not shown) [Compound 7, hexahydrocurcumin] | 13.17 ± 0.18 | 91.09 ± 0.41 | 91.09 ± 0.41 | 35.80 ± 0.77 | 35.80 ± 0.77 | – | – | – | no toxicity | stronger inhibitory effects than positive control (kojic acid) | – | –
OC[C@H]1O[C@@H](Oc2ccccc2O)[C@H](O)[C@@H](O)[C@@H]1O [Compound 21, pyrocatechol 1-O-β-D-glucopyranoside] | 46.03 ± 0.27 | 92.57 ± 0.27 | 92.57 ± 0.27 | 31.39 ± 3.99 | 31.39 ± 3.99 | 169 | ≥ 200 | – | – | – | – | –
COc1ccc([C@H]2OC[C@H]3[C@@H]2CO[C@@H]3c2ccc(OC)c(O[C@@H]3O[C@H](CO)[C@@H](O)[C@H](O)[C@H]3O)c2)cc1O [Compound 22, 4,4′-dimethoxy-3′-hydroxy-7,9′:7′,9-diepoxylignan-3-O-β-D-glucopyranoside] | 33.32 ± 0.29 | 91.51 ± 0.21 | 91.51 ± 0.21 | 36.91 ± 2.04 | 36.91 ± 2.04 | – | – | – | – | – | – | –
